According to US7511040B2, “Imidazopyrazines as protein kinase inhibitors” (Schering Corporation, priority 2006, dated 2009):

Experiments:
recombinant Aurora A = biological target: T1, recombinant Aurora A (Homo sapiens, UniProt O14965); assay: Aurora A enzyme assay (IMAP fluorescence polarization, Tamra-PKAtide substrate); assay type: biochemical; details: 8 nM enzyme, 25 μM ATP, 100 nM Tamra-PKAtide, 2 hours at room temperature
T1 construct: purchased Upstate 14-511
T1 sequence (O14965 1-403): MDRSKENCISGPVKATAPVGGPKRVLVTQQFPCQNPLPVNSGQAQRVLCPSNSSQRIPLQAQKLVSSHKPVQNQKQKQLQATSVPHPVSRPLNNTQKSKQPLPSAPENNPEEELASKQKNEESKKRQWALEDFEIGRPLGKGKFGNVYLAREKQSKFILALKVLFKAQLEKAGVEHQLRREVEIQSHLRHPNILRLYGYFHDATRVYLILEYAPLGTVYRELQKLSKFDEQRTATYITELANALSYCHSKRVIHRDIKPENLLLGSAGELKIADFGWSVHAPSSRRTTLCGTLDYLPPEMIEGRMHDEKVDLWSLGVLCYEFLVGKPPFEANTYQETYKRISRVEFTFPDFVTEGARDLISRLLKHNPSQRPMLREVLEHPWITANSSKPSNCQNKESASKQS
Protocol: (§1) An in vitro assay was developed that utilizes recombinant Aurora A or Aurora B as an enzyme source and a peptide based on PKA as the substrate.
Aurora A kinase assays were performed in low protein binding 384-well plates (Corning Inc). All reagents were thawed on ice. Compounds were diluted in 100% DMSO to desirable concentrations. […] For each reaction, 14 μl containing TAMRA-PKAtide, ATP, DTT and kinase buffer were combined with 1 μl diluted compound. The kinase reaction was started by the addition of 5 μl diluted enzyme. The reaction was allowed to run for 2 hours at room temperature. […] After an additional 2 hours, fluorescent polarization was measured using an Analyst AD (Molecular devices).
(§2) Dose-response curves were plotted from inhibition data generated each in duplicate, from 8 point serial dilutions of inhibitory compounds. Concentration of compound was plotted against kinase activity, calculated by degree of fluorescent polarization. To generate IC50 values, the dose-response curves were then fitted to a standard sigmoidal curve and IC50 values were derived by nonlinear regression analysis.

recombinant Aurora B = biological target: T2, recombinant Aurora B (Homo sapiens, UniProt Q96GD4); assay: Aurora B enzyme assay (IMAP fluorescence polarization, Tamra-PKAtide substrate); assay type: biochemical; details: 26 nM enzyme, 50 μM ATP, 100 nM Tamra-PKAtide, 2 hours at room temperature
T2 construct: purchased Invitrogen pv3970
Protocol: as §1
Aurora A kinase assays were performed in low protein binding 384-well plates (Corning Inc). All reagents were thawed on ice. Compounds were diluted in 100% DMSO to desirable concentrations. Each reaction consisted of 26 nM enzyme (Aurora B, Invitrogen cat#pv3970), 100 nM Tamra-PKAtide (Molecular Devices, 5TAMRA-GRTGRRNSICOOH), 50 μM ATP (Roche), 1 mM DTT (Pierce), and kinase buffer (10 mM Tris, 10 mM MgCl2, 0.01% Tween 20). For each reaction, 14 μl containing TAMRA-PKAtide, ATP, DTT and kinase buffer were combined with 1 μl diluted compound. The kinase reaction was started by the addition of 5 μl diluted enzyme. The reaction was allowed to run for 2 hours at room temperature. The reaction was stopped by adding 60 μl IMAP beads (1:400 beads in progressive (94.7% buffer A: 5.3% buffer B) 1× buffer, 24 mM NaCl). After an additional 2 hours, fluorescent polarization was measured using an Analyst AD (Molecular devices).
as §2

T2 sequence (Q96GD4 whole entry): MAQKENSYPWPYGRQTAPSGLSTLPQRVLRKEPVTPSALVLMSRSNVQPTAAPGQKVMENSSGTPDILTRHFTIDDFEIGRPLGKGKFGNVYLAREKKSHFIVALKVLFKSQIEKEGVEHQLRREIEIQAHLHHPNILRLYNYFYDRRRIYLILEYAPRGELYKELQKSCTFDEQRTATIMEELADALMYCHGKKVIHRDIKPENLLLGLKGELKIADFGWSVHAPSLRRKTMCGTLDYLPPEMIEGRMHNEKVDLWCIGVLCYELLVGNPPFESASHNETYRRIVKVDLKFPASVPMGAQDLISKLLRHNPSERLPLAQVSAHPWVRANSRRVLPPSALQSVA

Row | IC50 (recombinant Aurora A) | IC50 (recombinant Aurora B) | SMILES
1 | 661 nM | – | Cc1cc(Nc2nc(Sc3nc4ccccc4s3)cn3c(-c4cn[nH]c4)cnc23)sn1 [Example 4-1]
2 | – | 11 nM | CSc1cn2c(-c3cn[nH]c3)cnc2c(Nc2cc(C)ns2)n1 [Example 4-3]
3 | 600 nM | 442 nM | Cc1cc(Nc2nc(Sc3ccccc3Cl)cn3c(-c4cn[nH]c4)cnc23)sn1 [Example 4-4]
4 | – | 432 nM | Cc1cc(Nc2nc(Sc3ccccn3)cn3c(-c4cn[nH]c4)cnc23)sn1 [Example 4-5]
5 | – | 15 nM | CNC(=O)CSc1cn2c(-c3cn[nH]c3)cnc2c(Nc2cc(C)ns2)n1 [Example 4-6]
6 | 74 nM | 24 nM | COc1ccccc1Sc1cn2c(-c3cn[nH]c3)cnc2c(Nc2cc(C)ns2)n1 [Example 4-10]
7 | 50 nM | 114 nM | COc1cccc(Sc2cn3c(-c4cn[nH]c4)cnc3c(Nc3cc(C)ns3)n2)c1 [Example 4-11]
8 | – | 24 nM | COc1ccc(Sc2cn3c(-c4cn[nH]c4)cnc3c(Nc3cc(C)ns3)n2)cc1 [Example 4-12]
9 | – | 612 nM | Cc1cc(Nc2nc(Sc3ccc(Cl)cc3)cn3c(-c4cn[nH]c4)cnc23)sn1 [Example 4-13]
10 | 9 nM | 4 nM | CC(=O)Nc1ccc(Sc2cn3c(-c4cn[nH]c4)cnc3c(Nc3cc(C)ns3)n2)cc1 [Example 4-14]
11 | – | 9 nM | Cc1cc(Nc2nc(SCC(C)O)cn3c(-c4cn[nH]c4)cnc23)sn1 (centres unmarked) [Example 4-18]
12 | 25 nM | 67 nM | Cc1cc(Nc2nc(Sc3ccc(NC(=O)C4CC4)cc3)cn3c(-c4cn[nH]c4)cnc23)sn1 [Example 4-19]
13 | – | 10 nM | Cc1cc(Nc2nc(Sc3cccc(Cl)c3)cn3c(-c4cn[nH]c4)cnc23)sn1 [Example 4-20]
14 | – | 285 nM | Cc1cc(Nc2nc(Sc3ccncc3)cn3c(-c4cn[nH]c4)cnc23)sn1 [Example 4-21]
15 | – | 7 nM | Cc1cc(Nc2nc(Sc3nccs3)cn3c(-c4cn[nH]c4)cnc23)sn1 [Example 4-22]
16 | – | 66 nM | Cc1cc(Nc2nc(Sc3ncc[nH]3)cn3c(-c4cn[nH]c4)cnc23)sn1 [Example 4-23]
17 | – | 35 nM | Cc1cc(Nc2nc(Sc3ncn[nH]3)cn3c(-c4cn[nH]c4)cnc23)sn1 [Example 4-24]
18 | – | < 1000 nM | Cc1cc(Nc2nc(SC3CC3)cn3c(-c4cn[nH]c4)cnc23)sn1 [Example 4-25]
19 | > 5000 nM | > 3000 nM | Cc1cc(Nc2nc(SC3CCNC3)cn3c(-c4cnn(C)c4)cnc23)sn1 (centres unmarked) [Example 4-26]
20 | 697 nM | 223 nM | CSc1cn2c(-c3cc[nH]n3)cnc2c(Nc2cc(C)ns2)n1 [Example 4-27]
21 | 16500 nM | > 3000 nM | CSc1cn2c(-c3cc(C4CC4)[nH]n3)cnc2c(Nc2cc(C)ns2)n1 [Example 4-28]
22 | 2530 nM | 1320 nM | CSc1cn2c(-c3ccco3)cnc2c(Nc2cc(C)ns2)n1 [Example 4-30]
23 | 7540 nM | 710 nM | CNc1ncc(-c2cnc3c(Nc4cc(C)ns4)nc(SC)cn23)s1 [Example 4-31]
24 | 14200 nM | > 3000 nM | CSc1cn2c(-c3cccc(C)c3)cnc2c(Nc2cc(C)ns2)n1 [Example 4-32]
